According to ChEMBL document CHEMBL1201862, “PubChem BioAssay data set” (2004):
Calls of active or inactive are those of the source.

Experiments:
Genome polyprotein = Genome polyprotein (dengue virus type 2, UniProt P29990); assay: flavivirus cap methylation enzyme inhibition – biochemical, confirmation dose response, primary screen (AID 588689); assay type: functional
[1] = target: Photoreceptor-specific nuclear receptor (Homo sapiens, UniProt Q9Y5X4); assay type: functional, cell-based;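 also: CHO-S cells with Gal4-NCOR and VP16-NR2E3 two-hybrid luciferase reporter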
Vero = assay: viability of Vero cells under compound – cytotoxicity control for flavivirus capping enzyme inhibitors (AID 588742); assay type: functional; details: Chlorocebus sabaeus
[2] = target: DNA dC->dU-editing enzyme APOBEC-3A (Homo sapiens, UniProt P31941); assay: SAR analysis of small molecule inhibitors of APOBEC3A DNA Deaminase via a fluorescence-based single-stranded DNA deaminase assay.; assay type: functional; details: read-out: IC50_Mean
Chain of DNA dC->dU-editing enzyme APOBEC-3A (P31941 whole entry): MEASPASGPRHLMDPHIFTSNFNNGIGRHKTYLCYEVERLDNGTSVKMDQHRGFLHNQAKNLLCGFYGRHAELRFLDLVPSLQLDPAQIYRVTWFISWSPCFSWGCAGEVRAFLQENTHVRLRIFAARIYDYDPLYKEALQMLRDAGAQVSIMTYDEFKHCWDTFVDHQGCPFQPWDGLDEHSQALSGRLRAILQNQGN

[3] = target: DNA dC->dU-editing enzyme APOBEC-3G (Homo sapiens, UniProt Q9HC16); assay: inhibition of APOBEC3G ssDNA deamination – biochemical, fluorescence, single-stranded DNA substrate, SAR follow-up (AID 602136); assay type: functional; details: read-out: IC50_Mean
[4] = target: Delta-type opioid receptor (Homo sapiens, UniProt P41143); assay: Counterscreen for agonists of heterodimerization of the mu 1 (OPRM1) and delta 1 (OPRD1) opioid receptors: Luminescence-based cell-based high throughput dose response assay to identify agonists of OPRD1 homodimerization. [Related pubchem assays (depositor defined):AID504326, AID504355, AID504692, AID504904, AID504905]; assay type: functional
Chain of Delta-type opioid receptor (P41143 whole entry): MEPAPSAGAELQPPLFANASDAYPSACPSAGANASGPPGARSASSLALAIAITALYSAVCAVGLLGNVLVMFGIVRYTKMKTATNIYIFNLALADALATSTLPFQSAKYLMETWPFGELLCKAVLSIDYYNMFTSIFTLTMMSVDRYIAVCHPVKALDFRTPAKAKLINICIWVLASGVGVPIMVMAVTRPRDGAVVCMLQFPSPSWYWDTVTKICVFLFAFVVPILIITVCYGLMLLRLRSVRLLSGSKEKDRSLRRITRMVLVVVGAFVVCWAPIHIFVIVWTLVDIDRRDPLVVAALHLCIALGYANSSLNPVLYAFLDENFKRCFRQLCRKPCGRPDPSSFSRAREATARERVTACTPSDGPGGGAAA

Protein skinhead-1 = target: T1, Protein skinhead-1 (Caenorhabditis elegans, UniProt P34707); assay type: functional
T1 sequence (P34707 whole entry): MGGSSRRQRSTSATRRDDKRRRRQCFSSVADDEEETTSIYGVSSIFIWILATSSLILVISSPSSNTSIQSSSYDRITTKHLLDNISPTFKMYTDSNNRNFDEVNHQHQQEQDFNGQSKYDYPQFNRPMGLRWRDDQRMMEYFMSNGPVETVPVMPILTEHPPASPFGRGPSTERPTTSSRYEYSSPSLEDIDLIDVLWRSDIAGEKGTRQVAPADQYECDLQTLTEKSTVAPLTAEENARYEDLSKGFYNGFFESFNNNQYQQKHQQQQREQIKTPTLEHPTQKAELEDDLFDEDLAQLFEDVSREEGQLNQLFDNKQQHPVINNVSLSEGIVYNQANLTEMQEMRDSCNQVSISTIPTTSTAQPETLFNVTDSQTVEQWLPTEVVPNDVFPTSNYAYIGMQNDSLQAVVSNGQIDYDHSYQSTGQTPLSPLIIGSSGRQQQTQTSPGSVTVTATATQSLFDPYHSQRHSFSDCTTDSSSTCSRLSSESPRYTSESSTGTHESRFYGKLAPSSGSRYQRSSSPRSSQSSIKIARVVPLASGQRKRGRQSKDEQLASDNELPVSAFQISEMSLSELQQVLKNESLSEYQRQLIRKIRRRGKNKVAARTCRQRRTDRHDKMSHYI

Mu-type opioid receptor = Mu-type opioid receptor (Homo sapiens, UniProt P35372); assay: Counterscreen for agonists of heterodimerization of the mu 1 (OPRM1) and delta 1 (OPRD1) opioid receptors: Luminescence-based cell-based high throughput dose response assay to identify agonists of OPRM1 homodimerization.; assay type: functional;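 also: U2OS cells expressing OPRM1 and beta-arrestin as split beta-galactosidase partners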
Chain of Mu-type opioid receptor (P35372 whole entry): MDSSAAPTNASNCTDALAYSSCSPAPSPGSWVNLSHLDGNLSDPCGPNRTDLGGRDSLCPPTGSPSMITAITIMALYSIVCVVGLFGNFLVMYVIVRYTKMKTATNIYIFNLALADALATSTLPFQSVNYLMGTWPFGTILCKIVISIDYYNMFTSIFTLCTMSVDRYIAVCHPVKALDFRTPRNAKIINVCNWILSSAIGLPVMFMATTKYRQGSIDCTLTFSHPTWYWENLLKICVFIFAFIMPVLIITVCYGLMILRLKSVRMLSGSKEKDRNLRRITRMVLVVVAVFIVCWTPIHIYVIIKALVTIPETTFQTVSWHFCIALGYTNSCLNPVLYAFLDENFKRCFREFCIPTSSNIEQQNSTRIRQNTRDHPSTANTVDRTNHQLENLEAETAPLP

[5] = target: 5-hydroxytryptamine receptor 5A (Homo sapiens, UniProt P47898); assay: Counterscreen for agonists of OPRM1-OPRD1 heterodimerization: luminescence-based cell-based high throughput dose response assay to identify agonists of 5-hydroxytryptamine (serotonin) 5A receptor (HTR5A). [Related pubchem assays (depositor defined):AID504326, AID504355, AID504692, AID504904, AID504905]; assay type: functional
Chain of 5-hydroxytryptamine receptor 5A (P47898 whole entry): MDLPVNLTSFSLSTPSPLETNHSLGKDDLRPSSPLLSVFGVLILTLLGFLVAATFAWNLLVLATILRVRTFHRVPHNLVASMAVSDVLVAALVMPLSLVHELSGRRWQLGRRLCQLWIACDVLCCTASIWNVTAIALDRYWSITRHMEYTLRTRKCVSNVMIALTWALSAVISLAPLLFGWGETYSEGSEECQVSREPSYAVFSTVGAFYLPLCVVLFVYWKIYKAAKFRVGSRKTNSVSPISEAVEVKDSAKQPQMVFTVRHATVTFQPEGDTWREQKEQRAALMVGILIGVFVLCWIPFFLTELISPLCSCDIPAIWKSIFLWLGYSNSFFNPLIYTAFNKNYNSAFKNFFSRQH

[6] = target: T2, Aryl hydrocarbon receptor (Homo sapiens, UniProt P35869); details: Potency;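 also: confirmatory quantitative high-throughput screen measuring activation of the AhR signaling pathway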
T2 sequence (P35869 whole entry): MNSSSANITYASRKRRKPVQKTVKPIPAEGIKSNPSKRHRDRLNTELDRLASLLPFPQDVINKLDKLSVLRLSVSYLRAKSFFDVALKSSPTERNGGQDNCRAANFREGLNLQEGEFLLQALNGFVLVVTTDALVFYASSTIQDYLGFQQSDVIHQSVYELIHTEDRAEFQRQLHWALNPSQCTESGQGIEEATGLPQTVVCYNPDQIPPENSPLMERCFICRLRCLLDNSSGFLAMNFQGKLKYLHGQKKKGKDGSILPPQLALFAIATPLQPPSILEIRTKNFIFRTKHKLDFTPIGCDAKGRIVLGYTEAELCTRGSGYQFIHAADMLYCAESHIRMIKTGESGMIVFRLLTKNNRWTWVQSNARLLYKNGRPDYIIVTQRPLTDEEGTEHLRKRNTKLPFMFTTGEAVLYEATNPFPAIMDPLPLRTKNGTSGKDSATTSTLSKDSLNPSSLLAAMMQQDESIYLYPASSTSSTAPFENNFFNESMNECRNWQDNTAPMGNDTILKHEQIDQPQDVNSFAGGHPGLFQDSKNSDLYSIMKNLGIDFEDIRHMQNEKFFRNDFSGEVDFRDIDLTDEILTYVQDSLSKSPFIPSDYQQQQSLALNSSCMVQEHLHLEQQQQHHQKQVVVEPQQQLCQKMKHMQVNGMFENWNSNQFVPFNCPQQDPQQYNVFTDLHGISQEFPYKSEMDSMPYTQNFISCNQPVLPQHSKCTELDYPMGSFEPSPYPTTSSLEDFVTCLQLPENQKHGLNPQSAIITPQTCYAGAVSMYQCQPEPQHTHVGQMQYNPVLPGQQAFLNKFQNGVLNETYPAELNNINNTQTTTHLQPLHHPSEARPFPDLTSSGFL

[7] = nonselective StAR promoter luciferase inhibitors – cell-based, luminescence, luciferase reporter, counter-screen for LRH-1 inverse agonist project, dose response (AID 651969); assay type: functional
[8] = target: Nuclear receptor subfamily 5 group A member 2 (Homo sapiens, UniProt O00482); assay type: functional, cell-based;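 also: HEK293T cells transfected with LRH-1 and a StAR promoter luciferase reporter; potency for inhibitors that lower LRH-1 driven reporter light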
Steroidogenic factor 1 = Steroidogenic factor 1 (Homo sapiens, UniProt Q13285); assay: Counterscreen for inverse agonists of the liver receptor homolog-1 (LRH-1; NR5A2): Luminescence-based cell-based high throughput dose response assay to identify inverse agonists of the Steroidogenic Factor 1 Nuclear Receptor (SF1; NR5A1).; assay type: functional
[9] = target: MAP kinase-interacting serine/threonine-protein kinase 2 (Homo sapiens, UniProt Q9HBH9); assay type: functional
Chain of MAP kinase-interacting serine/threonine-protein kinase 2 (Q9HBH9 whole entry): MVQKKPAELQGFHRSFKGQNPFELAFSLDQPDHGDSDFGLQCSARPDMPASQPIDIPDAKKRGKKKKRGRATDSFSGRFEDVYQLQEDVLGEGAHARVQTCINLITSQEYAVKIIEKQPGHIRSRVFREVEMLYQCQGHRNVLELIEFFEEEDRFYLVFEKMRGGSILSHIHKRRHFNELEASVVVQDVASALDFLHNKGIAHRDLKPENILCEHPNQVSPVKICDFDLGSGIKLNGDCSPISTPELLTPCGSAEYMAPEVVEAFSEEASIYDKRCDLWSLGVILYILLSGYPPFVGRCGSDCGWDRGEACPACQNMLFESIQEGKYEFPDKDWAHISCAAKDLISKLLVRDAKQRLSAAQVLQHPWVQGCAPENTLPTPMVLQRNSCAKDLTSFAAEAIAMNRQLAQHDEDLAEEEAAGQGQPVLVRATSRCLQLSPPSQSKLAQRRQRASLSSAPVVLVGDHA

[10] = target: Serine/threonine-protein kinase pim-1 (Homo sapiens, UniProt P11309); assay type: functional
Chain of Serine/threonine-protein kinase pim-1 (P11309 whole entry): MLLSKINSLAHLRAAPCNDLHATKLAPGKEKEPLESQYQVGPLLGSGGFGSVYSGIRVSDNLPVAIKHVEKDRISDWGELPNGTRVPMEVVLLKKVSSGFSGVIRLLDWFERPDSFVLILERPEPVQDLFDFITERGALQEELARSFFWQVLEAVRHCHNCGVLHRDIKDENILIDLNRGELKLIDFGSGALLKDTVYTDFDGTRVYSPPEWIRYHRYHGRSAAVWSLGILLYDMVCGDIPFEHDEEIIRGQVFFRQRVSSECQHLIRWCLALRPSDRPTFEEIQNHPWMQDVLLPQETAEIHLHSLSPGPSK

[11] = target: Cell division cycle 7-related protein kinase (Homo sapiens, UniProt O00311); assay type: functional;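 also: value obtained from a kinome-wide kinase panel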
[12] = target: T3, Interleukin-1 receptor-associated kinase 4 (Homo sapiens, UniProt Q9NWZ3); assay type: functional
T3 sequence (Q9NWZ3 whole entry): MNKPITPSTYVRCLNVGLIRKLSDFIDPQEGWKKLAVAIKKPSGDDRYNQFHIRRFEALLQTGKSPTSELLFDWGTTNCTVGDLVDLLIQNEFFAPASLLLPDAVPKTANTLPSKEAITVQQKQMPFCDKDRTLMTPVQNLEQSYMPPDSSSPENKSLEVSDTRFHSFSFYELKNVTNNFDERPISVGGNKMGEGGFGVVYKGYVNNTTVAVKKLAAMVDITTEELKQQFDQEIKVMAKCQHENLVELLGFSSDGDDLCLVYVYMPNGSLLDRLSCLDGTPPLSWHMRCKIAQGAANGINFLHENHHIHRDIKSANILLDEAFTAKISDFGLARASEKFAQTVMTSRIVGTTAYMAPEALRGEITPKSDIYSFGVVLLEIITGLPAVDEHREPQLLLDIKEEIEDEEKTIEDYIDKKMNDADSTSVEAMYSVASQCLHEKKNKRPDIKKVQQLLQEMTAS

[13] = target: cAMP-dependent protein kinase catalytic subunit alpha (Homo sapiens, UniProt P17612); assay type: functional
[14] = target: Homeodomain-interacting protein kinase 2 (Homo sapiens, UniProt Q9H2X6); assay type: functional;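 also: measured within a kinome-wide kinase profiling panel, HIPK2 being one panel member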
Chain of Homeodomain-interacting protein kinase 2 (Q9H2X6 whole entry): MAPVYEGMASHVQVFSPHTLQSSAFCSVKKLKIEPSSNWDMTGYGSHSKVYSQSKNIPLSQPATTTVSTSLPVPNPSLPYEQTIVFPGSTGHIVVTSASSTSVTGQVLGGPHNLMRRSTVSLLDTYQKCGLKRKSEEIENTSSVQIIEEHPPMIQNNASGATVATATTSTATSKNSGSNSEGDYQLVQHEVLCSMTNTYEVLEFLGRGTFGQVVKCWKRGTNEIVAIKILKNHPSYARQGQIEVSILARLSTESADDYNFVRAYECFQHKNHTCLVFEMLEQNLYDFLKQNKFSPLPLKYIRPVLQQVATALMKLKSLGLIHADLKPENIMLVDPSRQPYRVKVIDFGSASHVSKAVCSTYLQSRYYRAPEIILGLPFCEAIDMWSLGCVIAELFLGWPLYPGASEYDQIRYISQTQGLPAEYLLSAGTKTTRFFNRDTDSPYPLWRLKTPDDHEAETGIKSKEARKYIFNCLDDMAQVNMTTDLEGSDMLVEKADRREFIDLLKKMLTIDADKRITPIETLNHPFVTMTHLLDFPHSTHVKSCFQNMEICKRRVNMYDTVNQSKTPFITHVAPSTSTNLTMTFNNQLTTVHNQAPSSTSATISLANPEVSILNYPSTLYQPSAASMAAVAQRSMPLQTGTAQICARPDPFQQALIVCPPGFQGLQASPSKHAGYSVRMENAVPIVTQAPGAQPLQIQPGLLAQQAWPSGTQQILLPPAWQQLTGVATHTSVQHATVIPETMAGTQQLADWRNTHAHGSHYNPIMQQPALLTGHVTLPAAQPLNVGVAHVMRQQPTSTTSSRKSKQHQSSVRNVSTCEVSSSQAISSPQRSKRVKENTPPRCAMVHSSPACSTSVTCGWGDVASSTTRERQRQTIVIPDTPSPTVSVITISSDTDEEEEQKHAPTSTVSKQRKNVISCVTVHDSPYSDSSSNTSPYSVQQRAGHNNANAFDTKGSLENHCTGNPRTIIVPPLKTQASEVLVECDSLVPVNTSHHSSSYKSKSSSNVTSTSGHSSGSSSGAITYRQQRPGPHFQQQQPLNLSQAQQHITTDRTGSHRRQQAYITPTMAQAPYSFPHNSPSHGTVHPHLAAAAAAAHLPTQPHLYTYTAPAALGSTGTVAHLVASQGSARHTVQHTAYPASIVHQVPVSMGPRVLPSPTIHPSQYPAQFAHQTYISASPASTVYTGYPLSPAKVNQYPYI

[15] = target: Glycogen synthase kinase-3 beta (Homo sapiens, UniProt P49841); assay type: functional;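 also: value comes from a broad kinome profiling panel, with GSK3B as the panel member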
Chain of Glycogen synthase kinase-3 beta (P49841 whole entry): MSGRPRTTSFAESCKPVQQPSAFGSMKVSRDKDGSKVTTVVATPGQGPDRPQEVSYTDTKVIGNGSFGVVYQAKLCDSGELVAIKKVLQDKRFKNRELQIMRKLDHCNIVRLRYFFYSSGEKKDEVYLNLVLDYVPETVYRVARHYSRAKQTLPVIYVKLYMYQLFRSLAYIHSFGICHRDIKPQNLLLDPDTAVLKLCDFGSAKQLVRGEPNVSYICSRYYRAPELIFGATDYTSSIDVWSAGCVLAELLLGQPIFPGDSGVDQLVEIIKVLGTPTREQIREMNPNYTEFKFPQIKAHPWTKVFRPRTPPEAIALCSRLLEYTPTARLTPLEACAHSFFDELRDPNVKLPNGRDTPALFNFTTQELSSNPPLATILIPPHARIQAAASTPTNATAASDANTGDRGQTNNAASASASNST

[16] = target: Mitogen-activated protein kinase kinase kinase kinase 4 (Homo sapiens, UniProt O95819); assay type: functional
Chain of Mitogen-activated protein kinase kinase kinase kinase 4 (O95819 whole entry): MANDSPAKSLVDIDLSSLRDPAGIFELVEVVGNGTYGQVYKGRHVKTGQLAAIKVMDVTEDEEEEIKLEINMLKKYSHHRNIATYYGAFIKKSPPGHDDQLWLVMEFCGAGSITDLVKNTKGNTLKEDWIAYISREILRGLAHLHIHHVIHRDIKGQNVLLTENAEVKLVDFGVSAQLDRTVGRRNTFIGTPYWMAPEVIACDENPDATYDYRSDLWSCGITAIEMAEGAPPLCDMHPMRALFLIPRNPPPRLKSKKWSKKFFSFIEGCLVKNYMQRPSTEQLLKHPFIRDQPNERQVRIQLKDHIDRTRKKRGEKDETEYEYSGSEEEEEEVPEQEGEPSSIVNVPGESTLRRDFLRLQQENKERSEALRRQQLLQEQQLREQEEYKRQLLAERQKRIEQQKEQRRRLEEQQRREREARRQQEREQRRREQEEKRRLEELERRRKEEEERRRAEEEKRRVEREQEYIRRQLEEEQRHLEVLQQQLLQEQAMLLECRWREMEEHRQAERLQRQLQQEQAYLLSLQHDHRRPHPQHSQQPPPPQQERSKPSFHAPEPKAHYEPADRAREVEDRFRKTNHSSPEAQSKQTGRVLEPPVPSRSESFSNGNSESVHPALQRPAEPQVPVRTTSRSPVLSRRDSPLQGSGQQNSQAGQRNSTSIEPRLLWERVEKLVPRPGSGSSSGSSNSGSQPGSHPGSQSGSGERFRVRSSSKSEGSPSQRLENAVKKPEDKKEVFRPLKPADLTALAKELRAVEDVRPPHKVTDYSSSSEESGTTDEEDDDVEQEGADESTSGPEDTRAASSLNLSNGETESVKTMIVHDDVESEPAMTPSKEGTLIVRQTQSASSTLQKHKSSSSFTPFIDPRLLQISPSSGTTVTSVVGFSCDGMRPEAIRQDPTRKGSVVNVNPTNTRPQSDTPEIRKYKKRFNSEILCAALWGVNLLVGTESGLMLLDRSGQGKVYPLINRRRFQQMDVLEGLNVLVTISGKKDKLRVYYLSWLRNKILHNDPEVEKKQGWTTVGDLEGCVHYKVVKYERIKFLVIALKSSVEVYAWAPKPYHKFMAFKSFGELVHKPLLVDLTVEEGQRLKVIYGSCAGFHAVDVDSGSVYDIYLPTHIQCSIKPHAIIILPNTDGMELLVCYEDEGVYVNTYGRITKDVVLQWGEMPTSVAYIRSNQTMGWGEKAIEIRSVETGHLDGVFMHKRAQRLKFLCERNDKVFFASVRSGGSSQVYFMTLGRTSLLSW

[17] = target: T4, Short transient receptor potential channel 4 (Mus musculus, UniProt Q9QUQ5); assay: calcium entry via TRPC4 opening agents – cell-based, HEK293 TRPC4/mu-opioid, Fluo-4 calcium, dose response (AID 434937); assay type: functional
T4 sequence (Q9QUQ5 whole entry): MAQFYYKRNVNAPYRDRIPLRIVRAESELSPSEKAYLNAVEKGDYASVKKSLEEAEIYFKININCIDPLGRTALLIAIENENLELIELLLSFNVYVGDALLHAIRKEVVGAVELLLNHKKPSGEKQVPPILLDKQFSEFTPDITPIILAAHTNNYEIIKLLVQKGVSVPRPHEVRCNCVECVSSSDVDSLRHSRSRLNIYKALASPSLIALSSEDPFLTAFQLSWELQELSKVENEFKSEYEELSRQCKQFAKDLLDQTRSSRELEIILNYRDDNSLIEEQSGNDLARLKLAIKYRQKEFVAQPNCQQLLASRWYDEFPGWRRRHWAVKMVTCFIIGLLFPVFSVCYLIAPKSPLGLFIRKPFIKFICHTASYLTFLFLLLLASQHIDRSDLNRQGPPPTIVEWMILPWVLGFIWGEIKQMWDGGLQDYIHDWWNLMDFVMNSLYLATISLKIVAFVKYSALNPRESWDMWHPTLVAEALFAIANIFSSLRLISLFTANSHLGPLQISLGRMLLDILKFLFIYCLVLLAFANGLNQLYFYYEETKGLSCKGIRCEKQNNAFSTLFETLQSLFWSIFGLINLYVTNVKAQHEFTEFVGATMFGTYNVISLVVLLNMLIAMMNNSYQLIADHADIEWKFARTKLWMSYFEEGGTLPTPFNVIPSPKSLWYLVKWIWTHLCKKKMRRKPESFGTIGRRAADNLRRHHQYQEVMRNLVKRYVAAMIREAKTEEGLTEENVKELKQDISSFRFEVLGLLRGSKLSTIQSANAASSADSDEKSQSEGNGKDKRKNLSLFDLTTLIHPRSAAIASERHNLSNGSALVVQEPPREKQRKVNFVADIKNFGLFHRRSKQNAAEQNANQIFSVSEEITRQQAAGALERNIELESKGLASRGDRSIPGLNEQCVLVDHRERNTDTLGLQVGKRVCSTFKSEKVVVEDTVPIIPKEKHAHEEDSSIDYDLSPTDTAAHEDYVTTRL

[18] = target: Dual specificity protein kinase CLK4 (Homo sapiens, UniProt Q9HAZ1); assay type: functional
HeLa = assay: ATP-based viability loss in HeLa cells – cell-based, CellTiter-Glo luminescence, cherry-pick samples, cytotoxicity control for MITF activator project, dose response (AID 540259); assay type: functional; details: Homo sapiens
H4 = assay: Luminescence Cell-Based Dose Response HTS to Identify Activators of 5'UTR Stem-Loop Driven Prion Protein mRNA Translation in H4 Neuroglioblastoma Cells. [Related pubchem assays: 1829 (Project Summary), 1814 (Primary HTS)]; assay type: functional; details: Homo sapiens
[19] = target: Mitochondrial peptide methionine sulfoxide reductase (Bos taurus, UniProt P54149); assay type: functional;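 also: absorbance read-out, biochemical high-throughput dose-response screen for MsrA inhibitors, confirmatory; recombinant bovine MsrA coupled to E. coli TrxB with NADPH and selenocystamine; potency is for inhibitors of MsrA activity on DMSO substrate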
Streptococcus = assay: GAS UMAA2166 growth inhibition – luminescence, BacTiterGlo, counter-screen for streptokinase expression inhibitor project, dose response (AID 1915); assay type: functional, organism-based;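 also: potency for reduction of bacterial viability or growth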
Escherichia coli [20] = assay: microbe, parasite or virus in culture
Escherichia coli [21] = assay: microbe, parasite or virus in culture; remark: listed apart in the source
[22] = system: Streptococcus sp. 'group A'; assay: Streptococcus pyogenes SK(-)GAS viability under kanamycin – luminescence, BacTiterGlo, confirmation, counter-screen for streptokinase expression inhibitor project, dose response (AID 1900); assay type: functional, organism-based

Cc1ccc([C@@H]2CC=C(C(=O)O)[C@H](c3ccc(C(C)(C)C)cc3)N2S(=O)(=O)c2ccc(C)cc2)cc1
IC50 (Genome polyprotein): 39.8 µM (active)
IC50 [1]: 5.74 µM (active)
CC50 (Vero): > 40 µM (active)

COCc1nnc(NC(=O)Cc2ccc(Cl)cc2)s1
IC50 [2]: > 99 µM (inactive)
IC50 [3]: > 99 µM (inactive)

OC(CN1CCN(C(c2ccccc2)c2ccccc2)CC1)c1ccccc1 (stereo not drawn)
EC50 [4]: > 92.6 µM (inactive)
IC50 (Protein skinhead-1): > 100 µM (inactive)
EC50 (Mu-type opioid receptor): > 92.6 µM (inactive)
EC50 [5]: > 92.6 µM (inactive)

CCOP(=S)(OCC)Oc1nc(Cl)n(C(C)C)n1
AC50 [6]: 39.8 µM (inconclusive)

CC(=O)Nc1ccc(NC(=O)COC(=O)Cc2c[nH]c3ccccc23)cc1
IC50 [7]: 35.9 µM (inactive)
IC50 [8]: 2.64 µM (active)
IC50 (Steroidogenic factor 1): 2.07 µM (active)

FC(F)(F)c1ccccc1CNc1nccc(-c2c[nH]c3ncccc23)n1
Ki [9]: 0.01 µM (active)
Ki [10]: 0.501 µM (active)
Ki [11]: 0.00126 µM (active)
Ki [12]: 0.2 µM (active)
Ki [13]: 0.0631 µM (active)
Ki [14]: 0.02 µM (active)
Ki [15]: 0.0126 µM (active)
Ki [16]: 0.02 µM (active)

CCOC(=O)C1(CCOC)CCN(Cc2ccccc2-c2ccco2)CC1
EC50 [17]: 0.299 µM (active)
EC50 [4]: > 92.5 µM (inactive)
EC50 (Mu-type opioid receptor): > 92.5 µM (inactive)
EC50 [5]: > 92.5 µM (inactive)

Cc1ccccc1-c1c(-c2ccc3[nH]nc(C)c3c2)nnn1Cc1ccccc1
Ki [9]: 0.158 µM (active)
Ki [10]: 0.251 µM (active)
Ki [11]: 0.00251 µM (active)
Ki [12]: > 10 µM (inactive)
Ki [18]: 0.00794 µM (active)
Ki [14]: 2.51 µM (active)
Ki [15]: 0.0126 µM (active)
Ki [16]: 0.158 µM (active)

CC(NS(=O)(=O)c1cccc(Cl)c1)C(=O)Nc1ccc(-c2nc3ccccc3s2)cc1 (stereo not drawn)
AC50 (HeLa): > 350 µM (inactive)

Cc1ccc(Nc2c([N+](=O)[O-])nn(-c3ccccc3)[n+]2[O-])c(C)c1
EC50 (H4): 9.37 µM (active)
IC50 [19]: 155 µM (inactive)

CN1CCN(c2c(F)cc3c(=O)c(C(=O)O)cn4c3c2OCN4C)CC1 [MARBOFLOXACIN]
EC50 (Streptococcus): 3.07 µM (active)
AC50 (Escherichia coli [20]): 4.63 µM (active)
AC50 (Escherichia coli [21]): 1.12 µM (active)
EC50 [22]: 2.79 µM (active)

CC(C)(C)c1ccc(S(=O)(=O)N2CCSC2)cc1
AC50 (Escherichia coli [20]): 31.3 µM (active)
AC50 (Escherichia coli [21]): 37.1 µM (active)

Cc1ccc(NC(=O)c2ccccc2Cl)c(Cl)c1
AC50 (HeLa): 84.8 µM (active)
